Article PMC11088877, “AMP-activated protein kinase can be allosterically activated by ADP but AMP remains the key activating ligand” (Biochemical Journal, 2024)
Several values for one entry are separate records, joined by “and”; a condition that tells them apart may be missing. Equal values may be shown once. Read-outs that look alike come from different tables or passages of the source.

What was measured:
[1] = molecular target: T1, human α2β2γ1 complex, CBS4 mutant (I312G) (Homo sapiens, UniProt P54619+P54646, I312G); experiment: Allosteric activation of CBS4 mutant human α2β2γ1 AMPK complex; format: biochemical; conditions: for Activation (maximal) / IC50 / EC50 / IC50/EC50: α2β2γ1 CBS4 mutant
T1 construct: made in house; host or cells: Escherichia coli
Text: To study allosteric activation with a more well-defined AMPK complex, and to study the effects of mutations in individual adenine nucleotide-binding sites on the γ subunit, we expressed a human α2β2γ1 complex in Escherichia coli and purified it utilizing the polyhistidine tag at the N-terminus of the α2 subunit. […] However, it had not been co-expressed with an N-myristoyl transferase so would not have been N-myristoylated on the β2 subunit. The complex was expressed not only with the WT γ1 sequence but also with mutations affecting hydrophobic residues previously shown to be involved in binding of the adenine moieties of nucleotides at CBS1 (L129D/V130D), CBS3 (V276G/L277G) and CBS4 (I312G). All four complexes co-purified as heterotrimeric 1:1:1 complexes as expected, and were phosphorylated and activated equally well either by CaMKK2 or the LKB1: STRADα:MO25α complex (Supplementary Figure S2). For the studies described below we phosphorylated Thr172 using a GST-tagged CaMKK2 and repurified AMPK using size exclusion chromatography and a glutathione-Sepharose column, which remove CaMKK2.
Figure 4. Allosteric activation of WT and mutant human α2β2γ1 AMPK complex by AMP and ADP at three different concentrations of ATP. The α2β2γ1 complex was phosphorylated on Thr172 prior to assay using CaMKK2. The γ1 subunit was either (A/E): WT; (B/F): a CBS1 mutant (L129D/V130D); (C/G): a CBS3 mutant (V276G/L277G); (D/H): a CBS4 mutant (I312G). Results are means of duplicate assays ± SD; error bars are not shown if they were smaller than the symbols used for mean values. Assays and curve fitting were as in Figure 1 at either 0.2 mM (left panels) or 5 mM (right panels) ATP. Best-fit values for all parameters used to generate the curves are listed in Supplementary Table S1.
Sources of antibodies were as described: pThr172 (AMPK-α: Cell Signaling Technologies, Danvers, MA, U.S.A., Cat# 2535), AMPK-α2 [22]. Rat liver AMPK was purified as described previously. Plasmid encoding human (His)6-tagged AMPK (α2β2γ1, bacterially expressed) generated as in [23], was a gift from AstraZeneca, Cambridge, U.K. The L129D/V130D (CBS1), V276G/L277G (CBS3) and I312G (CBS4) mutations in the α2β2γ1 complex were generated using the Quikchange II site-directed mutagenesis kit (Agilent Technologies) and confirmed by DNA sequencing. Human GST-tagged α2 kinase domain (1–310), LKB1:STRAD-α:MO25-α complexes, GST-tagged CaMKK2 [26], and PPM1A (PP2Cα) were produced as described. Bacterially expressed heterotrimers were activated by phosphorylation of Thr172 by GST-tagged CaMKK2 in the presence of ATP, and CaMKK2 was subsequently removed by passage through glutathione-Sepharose. Human GST-tagged α2 kinase domain was activated in a similar manner except that human (His)6-tagged LKB1:STRAD-α:MO25-α complex was used and removed after activation via passage through a His-Trap column. Recombinant human 5′-nucleotidase, CD73, Cat # 5795-EN-01, was from R&D systems (Minneapolis, MN, U.S.A.).
AMPK assays measured the transfer of radioactivity from [γ-^33P]ATP to a peptide substrate, which was separated from unreacted ATP by binding to P81 paper. This assay was described previously except that we used [γ-^33P] rather than [γ-^32P]ATP. In some assays (specified in Figure legends) the concentration of ATP was increased from 0.2 to 1 or 5 mM ATP, with MgCl2 concentrations maintained at a constant 4.8 mM excess above the concentration of ATP [19]. Where allosteric activation by AMP or ADP was being studied, we used the SAMS peptide as substrate. For all other assays the AMARA peptide was used.

[2] = molecular target: T2, human α2β2γ1 complex, CBS1 mutant (L129D/V130D) (Homo sapiens, UniProt P54619+P54646, L129D/V130D); experiment: AMPK activation and Thr172 phosphorylation by the LKB1 complex, CBS1 mutant; format: biochemical; conditions: 300 µM nucleotide, 200 µM ATP
T2 construct: made in house; host or cells: Escherichia coli
Protocol: The relative roles of the three CBS sites in the other two mechanisms of activation of AMPK by AMP or ADP, i.e. promotion of Thr172 phosphorylation by LKB1, and protection against Thr172 dephosphorylation by protein phosphatases, have not been examined previously. As expected, incubation of the α2β2γ1 AMPK complex with a fixed, limiting amount of purified LKB1:STRADα:MO25α complex in the presence of 200 µM Mg.ATP^2− caused a large degree of activation (Figure 5A) and phosphorylation (Figure 5B) of AMPK (unphosphorylated α2β2γ1 complex), which were stimulated more than 2-fold by 300 µM AMP and 1.6-fold by 300 µM ADP.
Figure 5. Effects of AMP or ADP on AMPK activation and Thr172 phosphorylation by the LKB1:STRADα:MO25α complex. Unphosphorylated human α2β2γ1 complexes (WT, or with L129D/V130D, V276G/L277G or I312G mutations affecting CBS1, CBS3 or CBS4 respectively) were incubated with ATP and a fixed concentration of the LKB1:STRADα:MO25α complex in the presence or absence of AMP or ADP (both 300 µM), as described in the Materials and methods section. After the incubation aliquots were withdrawn for (A) AMPK assay or (B) Western blots. […] For (B), due to a limit on the number of lanes that could be run on one gel, single replicates from the triplicate assays were analysed. […]

[3] = tested on: bacterially expressed AMPK; conditions: 5 mM Mg2+, 200 µM ATP, cited from earlier work

T1 sequence (P54619 whole entry I312G): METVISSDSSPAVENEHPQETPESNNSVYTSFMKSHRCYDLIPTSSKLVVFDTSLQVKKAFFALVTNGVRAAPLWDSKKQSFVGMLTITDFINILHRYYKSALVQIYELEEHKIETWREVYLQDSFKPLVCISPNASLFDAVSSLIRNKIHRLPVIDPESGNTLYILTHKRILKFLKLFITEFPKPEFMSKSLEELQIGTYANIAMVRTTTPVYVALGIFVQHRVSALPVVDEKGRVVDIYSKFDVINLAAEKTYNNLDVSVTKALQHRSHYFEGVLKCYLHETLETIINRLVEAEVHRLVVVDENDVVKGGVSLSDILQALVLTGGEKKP
T1 sequence (P54646 whole entry): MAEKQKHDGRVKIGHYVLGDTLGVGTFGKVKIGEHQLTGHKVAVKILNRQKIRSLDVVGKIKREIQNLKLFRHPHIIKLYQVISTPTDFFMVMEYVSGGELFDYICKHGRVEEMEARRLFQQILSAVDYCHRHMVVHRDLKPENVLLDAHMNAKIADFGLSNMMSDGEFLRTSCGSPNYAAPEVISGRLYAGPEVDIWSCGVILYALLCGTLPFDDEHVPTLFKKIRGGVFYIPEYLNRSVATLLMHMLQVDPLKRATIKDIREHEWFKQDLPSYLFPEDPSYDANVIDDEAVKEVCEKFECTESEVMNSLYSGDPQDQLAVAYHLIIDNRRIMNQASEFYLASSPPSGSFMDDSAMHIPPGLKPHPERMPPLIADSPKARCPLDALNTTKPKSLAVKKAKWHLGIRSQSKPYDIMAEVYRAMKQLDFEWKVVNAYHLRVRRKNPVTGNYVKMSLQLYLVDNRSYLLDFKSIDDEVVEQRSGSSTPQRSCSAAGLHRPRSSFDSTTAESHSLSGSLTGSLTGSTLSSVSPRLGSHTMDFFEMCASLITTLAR
T1 sequence (O43741 whole entry partner): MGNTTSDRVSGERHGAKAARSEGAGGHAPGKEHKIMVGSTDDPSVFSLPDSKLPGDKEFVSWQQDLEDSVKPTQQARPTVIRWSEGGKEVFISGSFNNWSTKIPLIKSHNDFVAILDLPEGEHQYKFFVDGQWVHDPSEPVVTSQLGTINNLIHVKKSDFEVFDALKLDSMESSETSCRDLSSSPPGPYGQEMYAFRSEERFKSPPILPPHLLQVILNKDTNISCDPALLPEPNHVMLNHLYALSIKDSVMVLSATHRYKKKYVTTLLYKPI
T2 sequence (P54619 whole entry L129D/V130D): as the sequence (P54619 whole entry I312G) above, with L129D, V130D, G312I counted along it
T2 sequence (P54646 whole entry): as the sequence (P54646 whole entry) above
T2 sequence (O43741 whole entry partner): as the sequence (O43741 whole entry partner) above

| Structure (SMILES) | Activation (maximal) ([1]; 0.2 mM ATP) | IC50 ([1]; 0.2 mM ATP) [µM] | Activation (maximal) ([1]; 5.0 mM ATP) | IC50 ([1]; 5.0 mM ATP) [µM] | effect of nucleotide on activation/phosphorylation by LKB1 in the mutant [2] | effect on kinase activity ([3]; 200 µM ADP) | allosteric activation ([3]; any ADP concentration up to 200 µM) | increase of EC50 for activation relative to WT ([1]; α2β2γ1 CBS4 mutant vs WT, 0.2 mM ATP) [fold] | increase of EC50 relative to WT ([1]; α2β2γ1 CBS4 mutant vs WT, 5 mM ATP) | EC50 ([1]; 0.2 mM ATP) [µM] | IC50/EC50 ([1]; 0.2 mM ATP) | EC50 ([1]; 5.0 mM ATP) [µM] | IC50/EC50 ([1]; 5.0 mM ATP) | allosteric activation ([3]; 200 µM AMP) [fold] |
| --- | --- | --- | --- | --- | --- | --- | --- | --- | --- | --- | --- | --- | --- | --- |
| Nc1ncnc2c1ncn2[C@@H]1O[C@H](COP(=O)(O)OP(=O)(O)O)[C@@H](O)[C@H]1O [ADP] | did not cause allosteric activation and none | 780 | essentially abolished allosteric activation and none | 31000 | unaffected | a small inhibition | no allosteric activation | – | – | – | – | – | – | – |
| Nc1ncnc2c1ncn2[C@@H]1O[C@H](COP(=O)(O)O)[C@@H](O)[C@H]1O [AMP] | 2.1 fold and 2.1 (2.0-2.1) fold | 3300 | 2.0- to 2.5 fold and 2.1 (1.9-2.4) fold | 28000 | unaffected | – | – | 40 | 10- to 20 fold | 38 | 87 | 280 | 100 | ~2 |
